# In patent US20110281802A1, “COMPOSITION FOR TREATMENT AND PREVENTION OF HAIR LOSS AND PREMATURE GRAYING OF HAIR” (Immudiagnostik AG, priority 2007, published 2011):
# Key:
# [1] = test system: human anagen VI hair follicles; assay: Hair shaft elongation of organ-cultured hair follicles, assay #3 (culture HF 446); assay type: cell-based
# Procedure: Human anagen VI hair follicles were isolated from scalp skin obtained from three different individuals undergoing routine face-lift surgery. All experiments were performed according to Helsinki guidelines.
# Hair follicles were isolated as described (Philpott MP et al, Human hair growth in vitro; J Cell Science 1990, 97(Pt 3):463-71). Isolated HFs were maintained in supplemented, serum-free Williams E medium (Biochrom, Cambridge, UK) supplemented with 2 mMol/L L-glutamine (Invitrogen, Paisley, UK), 10 ng/mL hydrocortisone (Sigma-Aldrich, Taufkirchen, Germany), 10 μg/mL insulin (Sigma-Aldrich), and 1% antibiotic/antimycotic mixture (Gibco, Karlsruhe, Germany). Hair follicles were placed in a 24-well plate with 500 μL medium (day 0) and incubated in a CO2-incubator (5% CO2, 37° C.) over night without any treatment. The next day (day 1) medium was exchanged and test substance was added to each well (5 μL of stock solution was added to 495 μL culture medium). The medium or medium with test substance was changed every 48 hours.
# (§1) Assay #3 Culture HF 446: Eight hair follicle cultures (3 follicles/well) were treated with various concentration of test substance as described for 2 days, followed by snap freezing and sectioning of two wells. Six wells were treated up to 9 days, then snap frozen and sectioned. The distribution of test substances and concentrations were as indicted in FIG. 3. The parameter measured after two days was proliferation/apoptosis, and the parameters measured after 9 days were elongation, proportion of cells in proliferation/apoptosis, and hair cycle stage
# Hair shaft length measurements were performed every second day on individual hair follicles using a binocular microscope with an eyepiece measuring reticule. The length of the follicle was defined as the distance between the base of the bulb and the cut end of the hair fibre (Philpott MP et al, Human hair growth in vitro; J Cell Science 1990, 97(Pt 3):463-71).
# All data were analysed by two-tailed unpaired t-test (SPSS analysis software SPSS Inc., Chicago, USA). For determination of elongation, two outliers at top and bottom end of value range were eliminated; with the measurement of melanogenesis one outlier at both, top and bottom range, was eliminated. Results are given as mean value and standard error of measurement (SEM).
# [2] = test system: human anagen hair follicles; assay: Ki67/TUNEL staining, percentage of proliferating cells, assay #3; assay type: cell-based; details: after 9 days of culture, Anagen only
# Procedure: as §1
# After nine days, Ki67/TUNEL staining was performed and photos taken.
# Proliferating and resting cells as well as cells undergoing apoptosis were counted separately proximal Auber's line. Results are expressed as percentages. For Ki-67/TUNEL staining, fixed sections were incubated for 60 minutes in a solution comprising 30% TdT-enzyme (Chemicon International, Inc., Temecula, Calif., USA; CatNo S1707). 2 mL stop buffer (Chemicon International, Inc.; CatNo S7110), diluted in 68 mL distilled water, was added for 10 minutes to stop the reaction. This was followed by a pre-incubation for 20 minutes with 10% goat serum (Dako Cytomation, CatNo 50114121) and incubation with mouse-anti human Ki-67 antigen (Chemicon International, Inc., CatNo S7110) 1:20 in PBS with 2% goat serum. The fixed section was then washed in PBS, treated with anti-digoxigenin antibody (Chemicon International, Inc., CatNo S7110) (59DI Antibody solution and 5601 Stop solution, 30 minutes) and goat anti-mouse-IgG-rhodamine red (Jackson Immuno Research, Suffolk, UK; CatNo 115-295-062), 1:200 in PBS with 2% goat serum. After washes with PBS, counterstaining with DAPI™ ([…]) (Roche, Basel, Switzerland; CatNo 236276) and further washes with PBS and mounting using Fluoromount (Southern Biotech, Birmingham, Ala., USA; CatNo 0100-01).
# After nine days, Ki67/TUNEL staining was performed and photos were taken. In anagen hair follicles, proliferating cells and cells undergoing apoptosis were counted separately proximal Auber's line. Results are expressed as percentages. […] The results are summarized in Table 6 and FIG. 9 showing the mean percentage of Ki6 7 positive cells with SEM
# TSH = assay: Immunohistochemical staining of treated hair follicles for TSH (assay #6); assay type: cell-based, human; details: few slides only
# Procedure: Assay #6—Stimulation of expression of pituitary hormones by Thymulin (PRL+TSH): Hair follicles from the occipital area of a person were cultured for 9 days and treated with culture medium and thymulin 10 pg/mL (human thymulin, No A9530AG.1; Immundiagnostik AG, Bensheim, Germany) as described above, then snap frozen and sectioned. The staining was performed according to the following protocol:
# B. TSH: Pre-incubation with 10% goat serum (Dako Cytomation, CatNo 50114121) in TBS for 20 minutes, then incubation with primary antibody (mouse anti-human TSH, Dianova, Hamburg, Germany, CatNo DLN 07830), dilution 1:20 in TBS+2% goat serum (Dako Cytomation, CatNo 50114121) overnight at 4° C. Thereafter washing in TBS. Incubation with secondary antibody (goat anti-mouse-biotinylated, Beckman Coulter, Inc. Fullerton, Calif., USA, CatNo IM0816) diluted to 1:200 with 2% goat serum in TBS for 45 minutes at room temperature. Treatment with avidin/biotin-complex coupled with alkaline phosphatase (Vector Laboratories, Burlingame, Calif., USA; CatNo AK-5000) for 30 minutes, then washes in TBS. Thereafter treatment with Fast Red Tablets (Sigma-Aldrich, CatNo F4648-50SET) for 6 minutes. Counterstaining with Mayer's Haemalaun (Chroma Muenster, CatNo 2E038) and mounting with Aquamount (DAKO Cytomation, CatNo S3025). […]
substance,measurement,setting,value
Thymosin beta-4 [TB4],Mean elongation in % compared to day 0,"[1]; 100 ng/mL, Day 0",0%
same,Mean elongation in % compared to day 0,"[1]; 100 ng/mL, Day 1",5.91%
same,Mean elongation in % compared to day 0,"[1]; 100 ng/mL, Day 3",42.55%
same,Mean elongation in % compared to day 0,"[1]; 100 ng/mL, Day 5",59.58%
same,Mean elongation in % compared to day 0,"[1]; 100 ng/mL, Day 7",73.62%
same,Mean elongation in % compared to day 0,"[1]; 100 ng/mL, Day 9",83.13%
same,Mean elongation in % compared to day 0,"[1]; 1000 ng/mL, Day 0",0%
same,Mean elongation in % compared to day 0,"[1]; 1000 ng/mL, Day 1",8.28%
same,Mean elongation in % compared to day 0,"[1]; 1000 ng/mL, Day 3",39.17%
same,Mean elongation in % compared to day 0,"[1]; 1000 ng/mL, Day 5",53.52%
same,Mean elongation in % compared to day 0,"[1]; 1000 ng/mL, Day 7",65.51%
same,Mean elongation in % compared to day 0,"[1]; 1000 ng/mL, Day 9",70.08%
same,Rate of hair growth compared with control (in words),"[1]; 1000 ng/mL, p<0.05",significantly lowered rate of hair growth
same,Mean percentage of Ki67-positive cells,[2]; 100 ng/mL,39.30 percentage
same,Mean percentage of Ki67-positive cells,[2]; 1000 ng/mL,33.14 percentage
thymulin,Mean elongation in % compared to day 0,"[1]; 10 pg/mL, Day 0",0%
same,Mean elongation in % compared to day 0,"[1]; 10 pg/mL, Day 1",7.30%
same,Mean elongation in % compared to day 0,"[1]; 10 pg/mL, Day 3",45.35%
same,Mean elongation in % compared to day 0,"[1]; 10 pg/mL, Day 5",58.41%
same,Mean elongation in % compared to day 0,"[1]; 10 pg/mL, Day 7",67.70%
same,Mean elongation in % compared to day 0,"[1]; 10 pg/mL, Day 9",78.70%
same,Mean elongation in % compared to day 0,"[1]; 100 pg/mL, Day 0",0%
same,Mean elongation in % compared to day 0,"[1]; 100 pg/mL, Day 1",5.86%
same,Mean elongation in % compared to day 0,"[1]; 100 pg/mL, Day 3",40.11%
same,Mean elongation in % compared to day 0,"[1]; 100 pg/mL, Day 5",62.88%
same,Mean elongation in % compared to day 0,"[1]; 100 pg/mL, Day 7",80.67%
same,Mean elongation in % compared to day 0,"[1]; 100 pg/mL, Day 9",94.36%
same,"Immunoreactivity for TSH, treated versus control hair follicles (in words)",TSH,Did not Show any Differences
same,Mean percentage of Ki67-positive cells,[2]; 10 pg/mL,31.58 percentage
same,Mean percentage of Ki67-positive cells,[2]; 100 pg/mL,35.75 percentage
